Measurements: patent US4778824A, “Method for suppressing a transplantation immunity and treating an allergic disease and an autoimmune disease” (Zaidan Hojin Biseibutsu Kagaku Kenkyu Kai, priority 1984, dated 1988)
Counter-ions that a name gives are not always drawn.

Experiments:
IgE antibody production = assay: Inhibition of IgE antibody production against egg albumin (passive cutaneous anaphylaxis titer); type: in vivo, BALB/c mice; conditions: 50 mg/kg/day i.p., ± S.D.
Description: BALB/c mice (7 wk old, female) were challenged by intraperitoneal administration of 10 μg of egg albumin together with 4 mg of aluminum hydroxide gel. Thereafter, the mice were intraperitoneally administered 50 mg/kg/day of the test compound in accordance with the schedules shown in Table 5. After the challenge, blood was drawn from the fundus of each mouse at 10-day intervals for serum collection. The antibody titer of IgE in the serum was determined by passive cutaneous anaphylaxis as follows. Fischer 344 rats (female, 10 wk old) were injected with 0.05 ml of a diluted serum into the dorsal skin. Four hours later, 1 mg of egg albumin and 0.5 ml of 1% Evans blue were injected into the tail vein, and the final serum dilution that produced a blue spot of a diameter of at least 5 mm 30 minutes after the intravenous injection was used as a measure of the antibody titer.

Allokiller T-lymphocyte = assay: Inhibition of allokiller T-lymphocyte genesis (51Cr release from P815 mastocytoma); type: in vivo, C 57 BL/b mice
Description: 3×10^7 P815 mastocytoma cells were administered intraperitoneally to C 57 BL/b mice (10 wk old). Twelve days later, spleen cels were isolated and used as effector cells (E). Target cells (T) which were ^51 Cr labelled P815 mastocytoma cells were challenged by the effector cells at varying E/T ratios and the allokiller activity was assayed in terms of the percentage release ^51 Cr. Spergualin was administered for nine consecutive days starting on the day following the transplantation or a single administration was made on the 9th day.

[1] = system: Skin allograft rejection (SHR to Fischer rats); assay: Inhibition of rejection of skin allograft; type: in vivo; conditions: ± S.D.
Excerpt: In the next place, the present inventors conducted a skin graft test with rats. In accordance with the method of Denham et al. (Denham et al., International Archives of Allergy and Applied Immunology, vol. 62, pp. 443-458, 1980), the skin of the tail of SHR rats was peeled and allografted onto Fischer rats. […] The inhibitory action of spergualin on tissue rejections is expected to manifest itself not only in skin transplantation but also in the transplantation of such organs as the kidney, heart, spleen, lung, liver, bone marrow and endocrine organs.
Skin sections (5×10 mm) were peeled from the tails of SHR rats (female, 10 wk old) and transplanted to Fischer rats (female, 10 wk old) on the back. Varying doses of spergualin were administered intraperitoneally for a consecutive period of 10 or 20 days starting on the day following the transplantation. Complete necrosis of the graft was used as a measure of rejection and the inhibitory action of the compound was evaluated in terms of how long the rejection was postponed. […] The longer the period of administration, the greater the inhibitory action.

[2] = system: acute experimental allergic encephalomyelitis; assay: Effect on acute experimental allergic encephalomyelitis; type: in vivo, strain 13 guinea pigs; conditions: 2 weeks, with S.D.
Description: Male strain 13 guinea pigs were used. A group consisted of 5 guinea pigs. An aqueous suspension of 50% syngeneic spinal cord homogenate was emulsified in an equal volume of complete Freund's adjuvant containing M. tuberculosis at 20 mg/ml. The antigen emulsion (0.1 ml) was injected both hindfootpads of a guinea pig. Spergualin was administered i.p. for 2 weeks at 0.78 and 1.56 mg/kg.

N=C(N)NCCCCC(O)CC(=O)NC(O)C(=O)NCCCCNCCCN (centres unmarked) [spergualin (trihydrochloride)]
IgE antibody titer, 10 days (IgE antibody production; days 1-8 after challenge): 13±33 dilutions
IgE antibody titer, 20 days (IgE antibody production; days 1-8 after challenge): 60±31 dilutions
IgE antibody titer, 30 days (IgE antibody production; days 1-8 after challenge): 320±0 dilutions
IgE antibody titer, 40 days (IgE antibody production; days 1-8 after challenge): 320±0 dilutions
IgE antibody titer, 10 days (IgE antibody production; days 1-16 after challenge): 0±0 dilutions
IgE antibody titer, 20 days (IgE antibody production; days 1-16 after challenge): 8±9 dilutions
IgE antibody titer, 30 days (IgE antibody production; days 1-16 after challenge): 80±120 dilutions
IgE antibody titer, 40 days (IgE antibody production; days 1-16 after challenge): 200±131 dilutions
IgE antibody titer, 10 days (IgE antibody production; days 9-16 after challenge): 120±98 dilutions
IgE antibody titer, 20 days (IgE antibody production; days 9-16 after challenge): 110±106 dilutions
IgE antibody titer, 30 days (IgE antibody production; days 9-16 after challenge): 320±0 dilutions
IgE antibody titer, 40 days (IgE antibody production; days 9-16 after challenge): 480±392 dilutions
Percent release of ^51 Cr (Allokiller T-lymphocyte; 5 mg/kg/day, days 1-9 after transplantation, E/T ratio 5): 6%
Percent release of ^51 Cr (Allokiller T-lymphocyte; 5 mg/kg/day, days 1-9 after transplantation, E/T ratio 10): 8%
Percent release of ^51 Cr (Allokiller T-lymphocyte; 5 mg/kg/day, days 1-9 after transplantation, E/T ratio 20): 17%
Percent release of ^51 Cr (Allokiller T-lymphocyte; 50 mg/kg, single administration day 9, E/T ratio 5): 21%
Percent release of ^51 Cr (Allokiller T-lymphocyte; 50 mg/kg, single administration day 9, E/T ratio 10): 30%
Percent release of ^51 Cr (Allokiller T-lymphocyte; 50 mg/kg, single administration day 9, E/T ratio 20): 51%
Percent release of ^51 Cr (Allokiller T-lymphocyte; 50 mg/kg/day, days 1-9 after transplantation, E/T ratio 5): 0%
Percent release of ^51 Cr (Allokiller T-lymphocyte; 50 mg/kg/day, days 1-9 after transplantation, E/T ratio 10): 0%
Percent release of ^51 Cr (Allokiller T-lymphocyte; 50 mg/kg/day, days 1-9 after transplantation, E/T ratio 20): 1%
Average No. of days before rejection ([1]; Run 1, 6.25 mg/kg/day i.p., days 1-10): 10.2 ± 2.6 days
Average No. of days before rejection ([1]; Run 1, 12.5 mg/kg/day i.p., days 1-10): 13.0 ± 4.2 days
Average No. of days before rejection ([1]; Run 1, 25.0 mg/kg/day i.p., days 1-10): 14.9 ± 6.9 days
Average No. of days before rejection ([1]; Run 1, 50.0 mg/kg/day i.p., days 1-10): 17.0 ± 3.2 days
Average No. of days before rejection ([1]; Run 2, 25.0 mg/kg/day i.p., days 1-10): 15.0 ± 5.2 days
Average No. of days before rejection ([1]; Run 2, 25.0 mg/kg/day i.p., days 1-20): 31.0 ± 1.9 days
Mean survival time ([2]; 0.78 mg/kg i.p.): 15.2 ± 1.8 days
Mean survival time ([2]; 1.56 mg/kg i.p., P < 0.01): 23.6 ± 9.2 days
